Results taken from ChEMBL document CHEMBL3044899, “Effect of chloro and fluoro groups on the antimicrobial activity of 2,5-disubstituted 4-thiazolidinones: a comparative study” (2012).
Active and inactive are the calls of the source. No cut-off for these calls is given here.

Columns and labels:
Bacillus subtilis [1] = assay: Antibacterial activity against Bacillus subtilis MTCC 121 at 300 ug/ml by cup plate method; type: functional; conditions: read-out: DIZ
Bacillus subtilis [2] = assay: Antibacterial activity against Bacillus subtilis MTCC 121 at 100 ug/ml by cup plate method; type: functional; conditions: read-out: DIZ
Escherichia coli [3] = assay: Antibacterial activity against Escherichia coli MTCC 739 by cup-plate method; type: functional, organism-based
Staphylococcus aureus [4] = assay: Antibacterial activity against Staphylococcus aureus MTCC 96 at 100 ug/ml by cup-plate method; type: functional; conditions: read-out: DIZ
Candida albicans = assay: Antifungal activity against Candida albicans MTCC 227 at 50 to 300 ug/ml by cup-plate method; type: functional, organism-based
Escherichia coli [5] = assay: Antibacterial activity against Escherichia coli MTCC 739 at 100 ug/ml by cup-plate method; type: functional; conditions: read-out: DIZ
Bacillus subtilis [6] = assay: Antibacterial activity against Bacillus subtilis MTCC 121 at 200 ug/ml by cup plate method; type: functional; conditions: read-out: DIZ
Staphylococcus aureus [7] = assay: Antibacterial activity against Staphylococcus aureus MTCC 96 by cup-plate method; type: functional, organism-based
Bacillus subtilis [8] = assay: Antibacterial activity against Bacillus subtilis MTCC 121 at 50 ug/ml by cup plate method; type: functional; conditions: read-out: DIZ
Pseudomonas aeruginosa [9] = assay: Antibacterial activity against Pseudomonas aeruginosa MTCC 2453 at 100 ug/ml by cup-plate method; type: functional; conditions: read-out: DIZ
Bacillus subtilis [10] = assay: Antibacterial activity against Bacillus subtilis MTCC 121 by cup plate method; type: functional, organism-based
Pseudomonas aeruginosa [11] = assay: Antibacterial activity against Pseudomonas aeruginosa MTCC 2453 at 50 ug/ml by cup-plate method; type: functional; conditions: read-out: DIZ
Staphylococcus aureus [12] = assay: Antibacterial activity against Staphylococcus aureus MTCC 96 at 300 ug/ml by cup-plate method; type: functional; conditions: read-out: DIZ
Staphylococcus aureus [13] = assay: Antibacterial activity against Staphylococcus aureus MTCC 96 at 50 ug/ml by cup-plate method; type: functional; conditions: read-out: DIZ
Staphylococcus aureus [14] = assay: Antibacterial activity against Staphylococcus aureus MTCC 96 at 200 ug/ml by cup-plate method; type: functional; conditions: read-out: DIZ
Pseudomonas aeruginosa [15] = assay: Antibacterial activity against Pseudomonas aeruginosa MTCC 2453 at 200 ug/ml by cup-plate method; type: functional; conditions: read-out: DIZ
Escherichia coli [16] = assay: Antibacterial activity against Escherichia coli MTCC 739 at 300 ug/ml by cup-plate method; type: functional; conditions: read-out: DIZ
Pseudomonas aeruginosa [17] = assay: Antibacterial activity against Pseudomonas aeruginosa MTCC 2453 by cup-plate method; type: functional, organism-based
Escherichia coli [18] = assay: Antibacterial activity against Escherichia coli MTCC 739 at 200 ug/ml by cup-plate method; type: functional; conditions: read-out: DIZ
Pseudomonas aeruginosa [19] = assay: Antibacterial activity against Pseudomonas aeruginosa MTCC 2453 at 300 ug/ml by cup-plate method; type: functional; conditions: read-out: DIZ
Escherichia coli [20] = assay: Antibacterial activity against Escherichia coli MTCC 739 at 50 ug/ml by cup-plate method; type: functional; conditions: read-out: DIZ

Row | SMILES | zone of inhibition at 300 µg/mL (Bacillus subtilis [1]) [mm] | zone of inhibition at 100 µg/mL (Bacillus subtilis [2]) [mm] | Activity (Escherichia coli [3]) | zone of inhibition at 100 µg/mL (Staphylococcus aureus [4]) [mm] | Activity (Candida albicans) | zone of inhibition at 100 µg/mL (Escherichia coli [5]) [mm] | zone of inhibition at 200 µg/mL (Bacillus subtilis [6]) [mm] | Activity (Staphylococcus aureus [7]) | zone of inhibition at 50 µg/mL (Bacillus subtilis [8]) [mm] | zone of inhibition at 100 µg/mL (Pseudomonas aeruginosa [9]) [mm] | Activity (Bacillus subtilis [10]) | zone of inhibition at 50 µg/mL (Pseudomonas aeruginosa [11]) [mm] | zone of inhibition at 300 µg/mL (Staphylococcus aureus [12]) [mm] | zone of inhibition at 50 µg/mL (Staphylococcus aureus [13]) [mm] | zone of inhibition at 200 µg/mL (Staphylococcus aureus [14]) [mm] | zone of inhibition at 200 µg/mL (Pseudomonas aeruginosa [15]) [mm] | zone of inhibition at 300 µg/mL (Escherichia coli [16]) [mm] | Activity (Pseudomonas aeruginosa [17]) | zone of inhibition at 200 µg/mL (Escherichia coli [18]) [mm] | zone of inhibition at 300 µg/mL (Pseudomonas aeruginosa [19]) [mm] | other results
1 | O=C1N/C(=N\c2ccc(Cl)cc2)S/C1=C\c1cccc([N+](=O)[O-])c1 | 11 | 10 | Dose-dependent effect | 9 | inactive | 8 | 10 | Dose-dependent effect | 9 | 9 | Dose-dependent effect | 8 | 10 | 8 | 9 | 9 | 10 | Dose-dependent effect | 9 | 11 | zone of inhibition at 50 µg/mL (Escherichia coli [20]): 7 mm
2 | O=C1N/C(=N\c2ccc(F)c(Cl)c2)S/C1=C\c1ccc(Cl)cc1 | 13 | 10 | Dose-dependent effect | 12 | inactive | 12 | 11 | Dose-dependent effect | 8 | 9 | Dose-dependent effect | 8 | 14 | 10 | 12 | 11 | 12 | Dose-dependent effect | 12 | 12 | zone of inhibition at 50 µg/mL (Escherichia coli [20]): 9 mm
3 | COc1cc(/C=C2\S/C(=N/c3ccc(F)c(Cl)c3)NC2=O)ccc1O | 10 | 8 | Dose-dependent effect | 8 | inactive | 8 | 8 | Dose-dependent effect | 7 | 9 | Dose-dependent effect | 7 | 11 | 7 | 9 | 10 | 9 | Dose-dependent effect | 8 | 10 | zone of inhibition at 50 µg/mL (Escherichia coli [20]): 7 mm
4 | O=C1N/C(=N\c2cccc(Cl)c2)S/C1=C\c1ccccc1[N+](=O)[O-] | 10 | 9 | Dose-dependent effect | 9 | inactive | 8 | 9 | Dose-dependent effect | 9 | 8 | Dose-dependent effect | 7 | 10 | 8 | 10 | 9 | 9 | Dose-dependent effect | 9 | 9 | zone of inhibition at 50 µg/mL (Escherichia coli [20]): 6 mm
5 | O=C(O)c1cn(C2CC2)c2cc(N3CCNCC3)c(F)cc2c1=O [CIPROFLOXACIN] |  | 15 |  | 14 |  |  |  |  |  | 15 |  |  |  |  |  |  |  |  |  |  | 
